Experimental data taken from PMC7156724, “Potent BRD4 inhibitor suppresses cancer cell-macrophage interaction” (Nature Communications, 2020).

Test system: A2780 tumor cells and TAMs
Test: Direct co-culture of pretreated A2780 cells with TAMs, Ki67/CD68 staining
Format: cell-based, mouse
Description: A2780 tumor cells were pretreated with 100 nM NHWD-870 and then directly co-cultured with TAMs (A2780:TAMs ratio as 4:1) at the density of 1 × 10^5 total cells in a 12-well. Shown are immunofluorescent staining of Ki67 and CD68 (a) and quantification of Ki67+ and CD68− or CD68+ cells (b). Scale bar is 50 μm. […] A2780 cells (pre-treated with or without 100 nM NHWD-870 for 48 h) were seeded into the top chamber (transwell size: 0.4 μm) and TAMs (Mac, 40,000 cells per 24-well) in medium containing 2% matrigel were seeded into the bottom chamber pre-coated with Matrigel. No NHWD-870 was added to the co-culture. The upper chamber without A2780 cells was used as a control. Shown are schematics of transwell co-culture experiment (c), representative pictures of TAM spheroid (d: black/white), and quantification of spheroid volumes (e). Scale bar is 50 μm. […] Data are presented as mean ± SEM from three independent experiments. g CSF1 protein levels in supernatant of 10^6 ID8, B16, A2780, SKOV3, and A375 cells treated with DMSO or 25 nM NHWD-870 for 24 h, as measured by ELISA. […] Scale bar is 20 μm. i Quantification of CSF1 staining in DMSO or 100 nM NHWD-870 treated A2780 cells. […] Shown are representative immunofluorescent staining of CSF1 (green) and CD68 (red) (j) and quantification of CSF1 staining (k). […]

Cc1nnn(C)c1-c1cnc2c3c4cnn(C)c4ccc3n([C@H](c3ccccc3)C3CCOCC3)c2c1 [NHWD-870]
quantification of Ki67+ and CD68+ cells (A2780 pretreated with 100 nM, direct co-culture with TAMs): 0 | inhibition at 0.1 µM (pre-treatment of A2780 cells with 100 nM, read-out: inhibition of the proliferation rate of TAMs): 83%
